PMC9571594, “Development of Semisynthetic Apoptosis-Inducing Agents Based on Natural Phenolic Acids Scaffold: Design, Synthesis and In-Vitro Biological Evaluation” (Molecules, 2022)
Converted amounts (≈) assume the structure as drawn. “And” between values parts separate entries of the source, which are not always exact repeats. Equal values may be shown once. Read-outs that look alike come from different tables or passages of the source.

Assays:
HepG2 cells = assay: MTT cell viability assay, HepG2; assay type: cell-based, human; settings: Homo sapiens, HepG2; MTT, 48 h, average of triplicates; read-out: IC50 (μM) ± SD HepG2
Procedure: (§1) MCF-7 cells (Human breast adenocarcinoma), HepG2 (human hepatocellular carcinoma), A549 (human lung adenocarcinoma), Caco-2 (colon carcinoma), PANC-1 (human pancreatic cancer), and Vero cells (derived from normal kidney cells) were supplied by (Holding Company for Biological Products and Vaccines VACSERA; Giza, Egypt). The cells were cultured in PRMI 1640 medium (Lonza, Switzerland) supplemented with 10% fetal bovine serum (Gibco), 1% penicillin and 1% streptomycin (Sigma Aldrich, Saint Louis, MO, USA) at 37 °C under an atmosphere of 5% CO2 and 95% air.
(§2) The effect of parent compounds and their derivatives were assessed by (3-(4,5-dimethylthiazol-2-yl)-2,5diphenyl-tetrazolium bromide) MTT assay. […] After a merged sheet of cells developed, the growth media was decanted from the 96-well microtiter and refilled with different concentrations of compounds (µg/mL), and the plate was incubated at 37 °C for 48 h to minimize exposure to the dissolving agent (Supporting Information).
(§3) MTT solution (BIO BASIC CANADA INC) was prepared [5 mg/mL in phosphate buffered saline (PBS)], added to each well and incubated for 4 h, then after removing the media, 200 μL of DMSO was added to each well to solubilize the formazan crystals and the optical density of the formazan product was measured at 560 nm using microplate reader (mindray, MR-96A). The results were calculated as the mean of the three independent experiments. […]
(§4) Determination of sample cytotoxicity on cells (MTT protocol) […]
(§5) well) and incubated at 37°C for 24 hours to develop a complete monolayer sheet.
(§6) 2- Growth medium was decanted from 96 well micro titer plates after confluent sheet of cells were formed, cell monolayer was washed twice with wash media.
(§7) 3- two-fold dilutions of tested sample was made in RPMI medium with 2% serum […]
(§8) 4- 0.1 ml of each dilution was tested in different wells leaving 3 wells as control, receiving only maintenance medium.
(§9) 5- Plate was incubated at 37°C and examined. Cells were checked for any physical signs of toxicity, e.g. partial or complete loss of the monolayer, rounding, shrinkage, […]
(§10) 6- MTT solution was prepared (5mg/ml in PBS) (BIO BASIC CANADA INC).
(§11) 8- 20ul MTT solution were added to each well. Place on a shaking table, 150rpm for 5 minutes, to thoroughly mix the MTT into the media.
(§12) 10) Dump off the media. (dry plate on paper towels to remove residue if necessary. […] 9 ش - ايلعلا هبضهلا - مطقملا / ىسيئرلا لمعملا […]

A549 cells = assay: MTT cell viability assay, A549; assay type: cell-based, human
Procedure: as §1, §2, §3, §4, §5, §6, §7, §8, §9, §10, §11, §12

Caco-2 cancer cell line = assay: MTT cell viability assay, Caco-2; assay type: cell-based
Procedure: as §1, §2, §3, §4, §5, §6, §7, §8, §9, §10, §11, §12

Caco-2 cells = assay: Cell-cycle analysis by flow cytometry; assay type: cell-based; settings: Caco-2 cells; Pre-G1 = apoptotic population
Procedure: The potential candidates with anti-tumor effect on the Caco-2 cell line along with a high SI were chosen for cell-cycle analysis. The cell-cycle distribution and cell death were analyzed using Annexin V-FITC/PI staining and flow cytometry (Table 4, Figure 4).
In order to determine the percentage of viable, apoptotic and necrotic cells after treatment with our compounds, double-staining with fluorescein isothiocyanate (FITC) and PI was performed. Annexin V-FITC Apoptosis Detection Kit (BioVision, CA, USA) was used. Briefly, cultured Caco-2 were treated with the tested compounds or DMSO for 24h. Cells were then collected by centrifugation at 2000 rpm for 5 min, and the pellet was washed with PBS then centrifuged again at 2000 rpm for 5 min then resuspended in 500μL of the kit’s binding buffer before adding the Annexin V-FITC and PI. The cells were then incubated at room temperature in the dark for 5 min. […]
Assay : Cell Cycle Analysis
Kit used : ab139418_Propidium Iodide Flow Cytometry Kit/BD
Assay samples :Cell culture
Cpd. No. Cpd. No. Cpd. No. Cpd. No.

MCF-7 cells = assay: MTT cell viability assay, MCF-7; assay type: cell-based, Human
Procedure: as §1, §2, §3, §4, §5, §6, §7, §8, §9, §10, §11, §12

[1] = MTT cell viability assay on normal Vero cells (selectivity); assay type: cell-based; settings: African green monkey, Vero cells (normal kidney cells)
Procedure: MCF-7 cells (Human breast adenocarcinoma), HepG2 (human hepatocellular carcinoma), A549 (human lung adenocarcinoma), Caco-2 (colon carcinoma), PANC-1 (human pancreatic cancer), and Vero cells (derived from normal kidney cells) were supplied by (Holding Company for Biological Products and Vaccines VACSERA; Giza, Egypt).
as §2, §3, §4, §5, §6, §7, §8, §9, §10, §11
10) Dump off the media. (dry plate on paper towels to remove residue if necessary. […]

PANC-1 cells = assay: MTT cell viability assay, PANC-1; assay type: cell-based, human
Procedure: as §1, §2, §3, §4, §5, §6, §7, §8, §9, §10, §11, §12

Molecule `COc1cc(/C=C/C(=O)O)ccc1O` [Compound 2, Ferulic acid] has an IC50 (HepG2 cells) of 810 ± 2170 µM, a Toxicity % (A549 cells; A549, 15.625 ug/ml) of 0.8674% and a Toxicity % (A549 cells; A549, 31.25 ug/ml) of 1.115%. It also gave a Toxicity % (A549 cells; A549, 62.5 ug/ml) of 0.7435%, a Toxicity % (A549 cells; A549, 125 ug/ml) of 4.089% and a Toxicity % (A549 cells; A549, 250 ug/ml) of 59.11%. For the same molecule, the Toxicity % (A549 cells; A549, 500 ug/ml) was 75.96%, the IC50 (A549 cells; Homo sapiens, A549, MTT, 48 h, average of triplicates, read-out: IC50 (μM) ± SD A549) was 1740 µM and the viability at 15.625 µg/mL (A549 cells; Homo sapiens, A549, 15.625 ug/ml) was 99.1%. The viability at 31.25 µg/mL (A549 cells; Homo sapiens, A549, 31.25 ug/ml) was 98.9%, the viability at 62.5 µg/mL (A549 cells; Homo sapiens, A549, 62.5 ug/ml) was 99.3% and the viability at 125 µg/mL (A549 cells; Homo sapiens, A549, 125 ug/ml) was 95.9%. The viability at 250 µg/mL (A549 cells; Homo sapiens, A549, 250 ug/ml) was 40.9%, the viability at 500 µg/mL (A549 cells; Homo sapiens, A549, 500 ug/ml) was 24% and the IC50 (A549 cells; Homo sapiens, A549, MTT report T-4-019-5, Conc. ug/ml, read-out: IC50) was 314 µg/mL. The Toxicity % (Caco-2 cancer cell line; Caco2, 15.625 ug/ml) was 0.2882%, the Toxicity % (Caco-2 cancer cell line; Caco2, 31.25 ug/ml) was 9.414% and the Toxicity % (Caco-2 cancer cell line; Caco2, 62.5 ug/ml) was 22.57%. For the same molecule, the Toxicity % (Caco-2 cancer cell line; Caco2, 125 ug/ml) was 70.61%, the Toxicity % (Caco-2 cancer cell line; Caco2, 250 ug/ml) was 88.18% and the Toxicity % (Caco-2 cancer cell line; Caco2, 500 ug/ml) was 84.34%. It also gave a viability at 15.625 µg/mL (Caco-2 cancer cell line; Homo sapiens, Caco-2, Caco2, 15.625 ug/ml) of 99.7%, a viability at 31.25 µg/mL (Caco-2 cancer cell line; Homo sapiens, Caco-2, Caco2, 31.25 ug/ml) of 90.6% and a viability at 62.5 µg/mL (Caco-2 cancer cell line; Homo sapiens, Caco-2, Caco2, 62.5 ug/ml) of 77.4%. The viability at 125 µg/mL (Caco-2 cancer cell line; Homo sapiens, Caco-2, Caco2, 125 ug/ml) was 29.4%, the viability at 250 µg/mL (Caco-2 cancer cell line; Homo sapiens, Caco-2, Caco2, 250 ug/ml) was 11.8% and the viability at 500 µg/mL (Caco-2 cancer cell line; Homo sapiens, Caco-2, Caco2, 500 ug/ml) was 15.7%. For the same molecule, the IC50 (Caco-2 cancer cell line; Homo sapiens, Caco-2, Caco2, MTT report T-4-019-5, Conc. ug/ml, read-out: IC50) was 96.4 µg/mL, the IC50 (Caco-2 cancer cell line; Homo sapiens, Caco-2, MTT, 48 h, average of triplicates, parent compounds and doxorubicin (Table 2), read-out: IC50 (μM) ± SD Caco-2) was 410 µM and the “%Pre-G1” value (Caco-2 cells) was 13.22% and 13.22 ± 0.63%. For the same molecule, the IC50 (MCF-7 cells; Homo sapiens, MCF7, MTT, 48 h, average of triplicates, read-out: IC50 (μM) ± SD MCF-7) was 1120 µM, the viability at 15.625 µg/mL (MCF-7 cells; Homo sapiens, Mcf7, 15.625 ug/ml) was 98.7% and the viability at 31.25 µg/mL (MCF-7 cells; Homo sapiens, Mcf7, 31.25 ug/ml) was 99.4%. The viability at 62.5 µg/mL (MCF-7 cells; Homo sapiens, Mcf7, 62.5 ug/ml) was 99.2%, the viability at 125 µg/mL (MCF-7 cells; Homo sapiens, Mcf7, 125 ug/ml) was 84.9% and the viability at 250 µg/mL (MCF-7 cells; Homo sapiens, Mcf7, 250 ug/ml) was 29.4%. For the same molecule, the viability at 500 µg/mL (MCF-7 cells; Homo sapiens, Mcf7, 500 ug/ml) was 11.7%, the IC50 (MCF-7 cells; Homo sapiens, Mcf7, MTT report T-4-019-5, Conc. ug/ml, read-out: IC50) was 203 µg/mL and the Toxicity % (MCF-7 cells; Mcf7, 15.625 ug/ml) was 1.286%. It also gave a Toxicity % (MCF-7 cells; Mcf7, 31.25 ug/ml) of 0.6431%, a Toxicity % (MCF-7 cells; Mcf7, 62.5 ug/ml) of 0.7503% and a Toxicity % (MCF-7 cells; Mcf7, 125 ug/ml) of 15.11%. The Toxicity % (MCF-7 cells; Mcf7, 250 ug/ml) was 70.63%, the Toxicity % (MCF-7 cells; Mcf7, 500 ug/ml) was 88.32% and the viability at 48 h, 15.625 ug/ml ([1]; 15.625 ug/ml) was 100%. The viability at 48 h, 31.25 ug/ml ([1]; 31.25 ug/ml) was 99.6%, the viability at 48 h, 62.5 ug/ml ([1]; 62.5 ug/ml) was 95.5% and the viability at 48 h, 125 ug/ml ([1]; 125 ug/ml) was 70.2%. It also gave a viability at 48 h, 250 ug/ml ([1]; 250 ug/ml) of 33.2%, a viability at 48 h, 500 ug/ml ([1]; 500 ug/ml) of 17.5% and a viability at 15.625 µg/mL (PANC-1 cells; Homo sapiens, PANC-1, Panc1, 15.625 ug/ml) of 100%. For the same molecule, the viability at 31.25 µg/mL (PANC-1 cells; Homo sapiens, PANC-1, Panc1, 31.25 ug/ml) was 99.7%, the viability at 62.5 µg/mL (PANC-1 cells; Homo sapiens, PANC-1, Panc1, 62.5 ug/ml) was 100% and the viability at 125 µg/mL (PANC-1 cells; Homo sapiens, PANC-1, Panc1, 125 ug/ml) was 86.5%. The viability at 250 µg/mL (PANC-1 cells; Homo sapiens, PANC-1, Panc1, 250 ug/ml) was 24.9%, the viability at 500 µg/mL (PANC-1 cells; Homo sapiens, PANC-1, Panc1, 500 ug/ml) was 28.5% and the IC50 (PANC-1 cells; Homo sapiens, PANC-1, Panc1, MTT report T-4-019-5, Conc. ug/ml, read-out: IC50) was 195 µg/mL (≈ 1010 µM). For the same molecule, the Toxicity % (PANC-1 cells; Panc1, 15.625 ug/ml) was 0%, the Toxicity % (PANC-1 cells; Panc1, 31.25 ug/ml) was 0.2717% and the Toxicity % (PANC-1 cells; Panc1, 62.5 ug/ml) was 0%. It also gave a Toxicity % (PANC-1 cells; Panc1, 125 ug/ml) of 13.5%, a Toxicity % (PANC-1 cells; Panc1, 250 ug/ml) of 75.09% and a Toxicity % (PANC-1 cells; Panc1, 500 ug/ml) of 71.47%.
